# Experimental data: patent US8268881B2, “Carboxamide derivatives as muscarinic receptor antagonists” (Pfizer Limited, priority 2005, dated 2012)
# Biological target: T1, human muscarinic M3 receptor (Homo sapiens, UniProt P20309)
# T1 construct: expressed in transfected cells
# Experiment: hM3 β-Lac potency assay (cell based β-lactamase)
# Settings: CHO cells expressing human M3 receptor, NFAT β-lactamase reporter; […]; IC50 converted to Ki by Cheng-Prusoff; read-out: Cell based β-lactamase M3 Ki
# Method: M3 potency was determined in CHO-K1 cells transfected with the NFAT-Betalactamase gene. CHO (Chinese Hamster Ovary) cells recombinantly expressing the human muscarinic M3 receptor were transfected with the NFAT_β-Lac_Zeo plasmid.
# The cells were re-suspended at 2×10^5 cells/ml in growth medium (composition as described above). […] Inhibition curves were plotted and IC50 values generated using a 4-parameter sigmoid fit and converted to Ki values using the Cheng-Prusoff correction and the KD value for carbamyl choline in the assay.
# T1 sequence (P20309 whole entry): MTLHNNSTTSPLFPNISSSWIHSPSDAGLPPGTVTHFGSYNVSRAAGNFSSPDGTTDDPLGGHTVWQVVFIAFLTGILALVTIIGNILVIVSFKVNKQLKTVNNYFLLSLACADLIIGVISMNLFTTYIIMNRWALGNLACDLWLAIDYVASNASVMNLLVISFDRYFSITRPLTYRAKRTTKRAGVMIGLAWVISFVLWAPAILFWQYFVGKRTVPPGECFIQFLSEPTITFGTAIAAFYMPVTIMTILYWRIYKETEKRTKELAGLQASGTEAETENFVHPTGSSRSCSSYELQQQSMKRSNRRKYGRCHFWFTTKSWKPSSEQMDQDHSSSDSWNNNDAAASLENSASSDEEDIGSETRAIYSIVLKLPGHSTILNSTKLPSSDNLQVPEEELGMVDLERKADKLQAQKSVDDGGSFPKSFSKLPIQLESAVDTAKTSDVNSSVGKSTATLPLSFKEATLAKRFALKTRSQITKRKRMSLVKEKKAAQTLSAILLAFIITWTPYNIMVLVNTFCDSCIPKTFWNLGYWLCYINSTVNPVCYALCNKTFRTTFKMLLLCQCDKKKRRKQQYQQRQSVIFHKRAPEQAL
row,SMILES,Ki
1,"CC(C)(CCC(C#N)(c1ccccc1)c1ccccc1)N1CCC(OCc2cccc(O)c2)CC1 [Example 88, 5-{4-[(3-Hydroxybenzyl)oxy]piperidin-1-yl}-5-methyl-2,2-diphenylhexanenitrile]",71.9 nM

# Same assay, conditions: CHO cells expressing human M3 receptor, NFAT β-lactamase reporter; inhibition of 80 nM carbamyl choline signal, 4 h; IC50 converted to Ki by Cheng-Prusoff; read-out: Cell based β-lactamase M3 Ki
row,SMILES,Ki
1,"CC(C)(CCC(C#N)(c1ccccc1)c1ccccc1)N1CC[C@H](OCc2cccc(-c3ccccc3O)c2)C1 [Example 58, 5-{(3S)-3-[(2′-Hydroxybiphenyl-3-yl)methoxy]pyrrolidin-1-yl}-5-methyl-2,2-diphenylhexanenitrile]",1580 nM
2,"CC(C)(CCC(C(N)=O)(c1ccccc1)c1ccccc1)N1CC[C@H](OCc2cccc(-c3cccc(O)c3)c2)C1 [Example 61, 5-{(3S)-3-[(3′-Hydroxybiphenyl-3-yl)methoxy]pyrrolidin-1-yl}-5-methyl-2,2-diphenylhexanamide]",9.85 nM
3,"CC(C)(CCC(C#N)(c1ccccc1)c1ccccc1)N1CC[C@H](OCc2cccc(-c3ccc(O)cc3)c2)C1 [Example 62, 5-[(3S)-3-[(4′-Hydroxybiphenyl-3-yl)methoxy]-pyrrolidin-1-yl]5-methyl-2,2-diphenylhexanenitrile]",57.4 nM
4,"CC(C)(CCC(C(N)=O)(c1ccccc1)c1ccccc1)N1CC[C@H](OCc2cccc(-c3ccc(O)cc3)c2)C1 [Example 63, 5-{(3S)-3-[(4′-Hydroxybiphenyl-3-yl)methoxy]pyrrolidin-1-yl}-5-methyl-2,2-diphenylhexanamide]",28.7 nM
5,"CC(C)(CCC(C(N)=O)(c1ccccc1)c1ccccc1)N1CC[C@H](OCc2cccc(-c3ccccc3O)c2)C1 [Example 64, 5-{(3S)-3-[(2′-Hydroxybiphenyl-3-yl)methoxy]pyrrolidin-1-yl}-5-methyl-2,2-diphenylhexanamide]",65.6 nM
6,"CC(C)(CCC(C(N)=O)(c1ccccc1)c1ccccc1)N1CC[C@H](OCc2ccc(-c3cccc(O)c3)cc2)C1 [Example 65, 5-[(3S)-3-[(3′-Hydroxybiphenyl-4-yl)methoxy]pyrrolidin-1-yl]5-methyl-2,2-diphenylhexanamide]",62.7 nM
7,"CC(C)(CCC(C(N)=O)(c1ccccc1)c1ccccc1)N1CC[C@H](OCc2cccc(-c3ccccc3)c2)C1 [Example 66, 5-[(3S)-3-(Biphenyl-3-ylmethoxy)pyrrolidin-1-yl]-5-methyl-2,2-diphenylhexanamide]",45.4 nM
8,"CC(C)(CCC(C(N)=O)(c1ccccc1)c1ccccc1)N1CC[C@@H](OCc2ccc(F)c(O)c2)C1 [Example 67, 5-[(3R)-3-(4-Fluoro-3-hydroxy-benzyloxy)-pyrrolidin-1-yl]-5-methyl-2,2-diphenylhexanamide]",10.7 nM
9,"CC(C)(CCC(C(N)=O)(c1ccccc1)c1ccccc1)N1CC[C@H](Oc2cc(O)cc(C#N)c2)C1 [Example 68, 5-[(3S)-3-(3-Cyano-5-hydroxy-phenoxy)-pyrrolidin-1-yl]-5-methyl-2,2-diphenylhexanamide]",9.88 nM
10,"COc1ccc(C#N)c(O[C@H]2CCN(C(C)(C)CCC(C(N)=O)(c3ccccc3)c3ccccc3)C2)c1 [Example 69, 5-[(3S)-3-(2-Cyano-5-methoxy-phenoxy)-pyrrolidin-1-yl]-5-methyl-2,2-diphenylhexanamide]",111 nM
11,"CC(C)(CCC(C(N)=O)(c1ccccc1)c1ccccc1)N1CC[C@H](Oc2ccc3ccc(O)cc3c2)C1 [Example 70, 5-[(3S)-3-[(7-Hydroxy-2-naphthyl)oxy]pyrrolidin-1-yl]-5-methyl-2,2-diphenylhexanamide]",19.1 nM
12,"CC(C)(CCC(C(N)=O)(c1ccccc1)c1ccccc1)N1CC[C@H](Oc2ccc(-c3ccccc3)cc2)C1 [Example 71, 5-[(3S)-3-(4-Phenylphenoxy)pyrrolidin-1-yl]-5-methyl-2,2-diphenylhexanamide]",113 nM
13,"CC(C)(CCC(C(N)=O)(c1ccccc1)c1ccccc1)N1CC[C@@H](OCc2ccc(Cl)c(O)c2)C1 [Example 79, 5-[(3R)-3-(4-Chloro-3-hydroxy-benzyloxy)-pyrrolidin-1-yl]-5-methyl-2,2-diphenyl hexanamide]",16.2 nM
14,"COc1cc(O[C@@H]2CCN(C(C)(C)CCC(C(N)=O)(c3ccccc3)c3ccccc3)C2)ccc1Cl [Example 81, 5-[(3R)-3-(3-methoxy-4-chloro-Phenoxy)-pyrrolidin-1-yl]-5-methyl-2,2-diphenylhexanamide]",35.4 nM
15,"CC(C)(CCC(C(N)=O)(c1ccccc1)c1ccccc1)N1CC[C@@H](Oc2ccc(C#N)c(O)c2)C1 [Example 83, 5-[(3R)-3-(3-hydroxy-4-cyano-phenoxy)-pyrrolidin-1-yl]-5-methyl-2,2-diphenylhexanamide]",30 nM
16,"CC(C)(CCC(C#N)(c1ccccc1)c1ccccc1)N1CCC(OCc2ccccc2)CC1 [Example 89, 5-[4-(Benzyloxy)piperidin-1-yl]-5-methyl-2,2-diphenylhexanenitrile]",159 nM
17,"CC(C)(CCC(C(N)=O)(c1ccccc1)c1ccccc1)N1CCC(OCc2cccc(Br)c2)CC1 [Example 91, 5-{4-[(3-Bromobenzyl)oxy]piperidin-1-yl}-5-methyl-2,2-diphenylhexanamide]",22.6 nM
18,"CC(C)(CCC(C(N)=O)(c1ccccc1)c1ccccc1)N1CCC(Oc2cc(O)c(Cl)cc2Cl)CC1 [Example 93, 5-[4-(2,4-Dichloro-5-hydroxy-phenoxy)-piperidin-1-yl]-5-methyl-2,2-diphenylhexanoic acid amide]",26.8 nM
19,"CC(C)(CCC(C(N)=O)(c1ccccc1)c1ccccc1)N1CCC(Oc2cc(F)c(C#N)cc2F)CC1 [Example 94, 5-[4-(4-Cyano-2,5-difluoro-phenoxy)-piperidin-1-yl]-5-methyl-2,2-diphenylhexanoic acid amide]",12.4 nM
20,"CC(C)(CCC(C(N)=O)(c1ccccc1)c1ccccc1)N1CCC(OCc2cccc(-c3cccc(O)c3)c2)CC1 [Example 98, 5-{4-[(3′-hydroxybiphenyl-3-yl)methoxy]piperidin-1-yl}-5-methyl-2,2-diphenylhexanamide]",139 nM

# More lines, now with the values ahead:
row,Ki,SMILES
1,0.334 nM,"CC(C)(CCC(C(N)=O)(c1ccccc1)c1ccccc1)N1CC[C@H](Oc2cccc(O)c2F)C1 [Example 53, 5-[(3S)-3-(2-Fluoro-3-Hydroxy-phenoxy)-pyrrolidin-1-yl]-5-methyl-2,2-diphenyl-hexanoic acid amide]"
2,3.62 nM,"CC(C)(CCC(C(N)=O)(c1ccccc1)c1ccccc1)N1CC[C@@H](OCc2cccc(O)c2)C1 [Example 54, 5-[(3R)-3-(3-Hydroxy-benzyloxy)-pyrrolidin-1-yl]-5-methyl-2,2-diphenyl-hexanoic acid amide]"
3,1.23 nM,"CC(C)(CCC(C(N)=O)(c1ccccc1)c1ccccc1)N1CC[C@@H](Oc2ccc(O)c(Cl)c2)C1 [Example 72, 5-[(3R)-3-(3-chloro-4-hydroxyphenoxy)pyrrolidin-1-yl]-5-methyl-2,2-diphenylhexanamide]"
4,0.852 nM,"COc1cc(F)cc(O[C@@H]2CCN(C(C)(C)CCC(C(N)=O)(c3ccccc3)c3ccccc3)C2)c1 [Example 73, 5-[(3R)-3-(3-Fluoro-5-methoxy-phenoxy)-pyrrolidin-1-yl]-5-methyl-2,2-diphenylhexanamide]"
5,< 0.56 nM,"CC(C)(CCC(C(N)=O)(c1ccccc1)c1ccccc1)N1CC[C@@H](Oc2cc(O)cc(F)c2)C1 [Example 74, 5-[(3R)-3-(3-Fluoro-5-hydroxy-phenoxy)-pyrrolidin-1-yl]-5-methyl-2,2-diphenyl-hexanamide]"
6,0.582 nM,"CC(C)(CCC(C(N)=O)(c1ccccc1)c1ccccc1)N1CC[C@@H](Oc2cccc(O)c2F)C1 [Example 76, 5-[(3R)-3-(2-Fluoro-3-hydroxy-phenoxy)-pyrrolidin-1-yl]-5-methyl-2,2-diphenylhexanamide]"
7,4.96 nM,"COc1cccc(O[C@@H]2CCN(C(C)(C)CCC(C(N)=O)(c3ccccc3)c3ccccc3)C2)c1Cl [Example 77, 5-[(3R)-3-(2-Chloro-3-methoxy-phenoxy)-pyrrolidin-1-yl]-5-methyl-2,2-diphenylhexanamide]"
8,0.917 nM,"CC(C)(CCC(C(N)=O)(c1ccccc1)c1ccccc1)N1CC[C@@H](Oc2cccc(O)c2Cl)C1 [Example 78, 5-[(3R)-3-(2-Chloro-3-hydroxy-phenoxy)-pyrrolidin-1-yl]-5-methyl-2,2-diphenylhexanamide]"
9,7.96 nM,"CC(C)(CCC(C(N)=O)(c1ccccc1)c1ccccc1)N1CC[C@@H](Oc2ccc(Cl)c(O)c2)C1 [Example 82, 5-[(3R)-3-(3-hydroxy-4-chloro-phenoxy)-pyrrolidin-1-yl]-5-methyl-2,2-diphenylhexanamide]"
10,6.97 nM,"COc1cccc(CO[C@H]2CCN(C(C)(C)CCC(C(N)=O)(c3ccccc3)c3ccccc3)C2)c1 [Example 84, 5-[(3S)-3-(3-methoxy-benzyloxy)pyrrolidin-1-yl]-5-methyl-2,2-diphenylhexanamide]"
11,3.19 nM,"CC(C)(CCC(C(N)=O)(c1ccccc1)c1ccccc1)N1CC[C@@H](OCc2cccc(O)c2Cl)C1 [Example 85, 5-[(3R)-3-(2-Chloro-3-hydroxy-benzyloxy)-pyrrolidin-1-yl]-5-methyl-2,2-diphenylhexanamide]"
12,1.26 nM,"CC(C)(CCC(C#N)(c1ccccc1)c1ccccc1)N1CCC(Oc2ccccc2)CC1 [Example 86, 5-Methyl-5-(4-phenoxypiperidin-1-yl)-2,2-diphenylhexanenitrile]"
13,0.268 nM,"CC(C)(CCC(C(N)=O)(c1ccccc1)c1ccccc1)N1CCC(Oc2ccccc2)CC1 [Example 90, 5-Methyl-5-(4-Phenoxypiperidin-1-yl)-2,2-diphenylhexanamide]"
14,2.13 nM,"CC(C)(CCC(C(N)=O)(c1ccccc1)c1ccccc1)N1CCC(OCc2ccccc2)CC1 [Example 92, 5-[4-(Benzyloxy)piperidin-1-yl]-5-methyl-2,2-diphenylhexanamide]"
15,6.51 nM,"Cc1c(O)cccc1OC1CCN(C(C)(C)CCC(C(N)=O)(c2ccccc2)c2ccccc2)CC1 [Example 96, 5-[4-(3-hydroxy-2-methylphenoxy)piperidin-1-yl]-5-methyl-2,2-diphenylhexanamide]"
